In patent US20230348447A1, “OXAZOLIDINONE COMPOUNDS, LIPOSOME COMPOSITIONS COMPRISING OXAZOLIDINONE COMPOUNDS AND METHOD OF USE THEREOF” (priority 2020, published 2023):
Values after ≈ are worked out from the molar mass of the structure shown. Values joined by “and” are separate entries in the source; they are usually repeats but may differ in a detail not shown here. Identical values can stand only once. Like-named read-outs stand apart in the source and are kept apart here.

Tests used:
M.tb Erdman = assay: Broth microdilution MIC with Alamar blue endpoint (MABA) / OD600; format: cell-based, Mycobacterium tuberculosis
M.tb H37Rv = assay: as above; format: cell-based, Mycobacterium tuberculosis
[1] = tested on: African green monkey kidney (Vero; ATCC # CCL81) cells; assay: In vitro cytotoxicity (PrestoBlue cell viability), Vero; format: cell-based; conditions: Chlorocebus sabaeus, Vero, 72 h, read-out: Cell viability IC50, VERO
[2] = tested on: human hepatocyte/liver (HepG2; ATCC #HB8065) cells; assay: In vitro cytotoxicity (PrestoBlue cell viability), HepG2; format: cell-based; conditions: Homo sapiens, HepG2, 72 h, read-out: Cell viability IC50, HepG2
[3] = tested on: M. Tuberculosis Erdman or H37Rv vs VERO or HepG2 cells; assay: Selectivity Index (mammalian cell IC50 / bacterial MIC); design: species or system Mycobacterium tuberculosis
[4] = Aqueous solubility (visually clear solutions); format: physicochemical; conditions: aqueous, 1 N HCl and/or water added
Experimental: Working stocks of the compounds were prepared as follows: to an aliquot of a compound (free base) in a powder form 1-1.5 equivalents of HCl in the form of 1 N aqueous solution was added, and the mixture was vortexed until homogeneity. To the resulting cake or syrup, water was added typically to the final 10 mg/ml, and complete dissolution was observed. In some instances, 0.95 equivalents of HCl were added to the free base form of the drug, and 20 mg/ml stock solution was prepared.
Aqueous solubility of the compounds of the present disclosure is illustrated by the following observations of obtaining visually clear solutions: […]

[5] = tested on: mitochondrial protein synthesis (COX-1/SDH-A ratio) in H9C2 rat heart myoblast cells; assay: Mitochondrial protein synthesis inhibition (MitoBiogenesis in-cell ELISA, COX-1/SDH-A); format: cell-based; conditions: 120 h, five days, read-out: MPS IC50
M.avium = assay: MIC in nontuberculosis mycobacteria (microbroth dilution, resazurin); format: cell-based, Mycobacterium avium; conditions: for MIC: Mycobacterium avium
M. chelonae = assay: as above; format: cell-based, Mycobacterium chelonae; conditions: Mycobacteroides chelonae
M. abscessus = assay: as above; format: cell-based, Mycobacterium abscessus; conditions: Mycobacteroides abscessus
M. kansasii = assay: as above; format: cell-based; conditions: Mycobacterium kansasii
M. massiliense = assay: as above; format: cell-based, Mycobacterium massiliense; conditions: Mycobacteroides abscessus
[6] = In vitro burst release of liposomal drug in plasma, human; conditions: mouse or human plasma, 20 min 37° C., 0.5 M AS liposomes, 40-65 mol% Chol (FIG. 5A, 5B)
Experimental: The plasma was thawed, if necessary, adjusted to pH 7.4 with 1 N HCl, and sequentially filtered through glass microfiber filters (GF/C), 1 µm polyethersulfone (PES), and 0.22 µm PES filters. Plasma (80 µl) was mixed with liposomal drug formulations (20 µl) in a 0.5 ml Eppendorf tube. The mixture was subsequently incubated for 20 min at 37° C. and then put into chilled water.
Incubation time was 20 min.

MRSA ATCC BAA-1556 = assay: MIC against methicillin resistant Staphylococcus aureus (MRSA)
MRSA ATCC 43300 = assay: as above; conditions: read-out: MRSA MIC, ATCC 43300
MRSA 880 NR-49120 = assay: as above; conditions: read-out: MRSA MIC, 880 NR-49120
[7] = Liposome loading / encapsulation efficiency (General protocol); conditions: for maximum drug load: HSPC:Chol 3:2, 0.5 mol% PEG-DSG (Example 14)
M. Tuberculosis Erdman [8] = assay: Efficacy of monotherapy in chronic Balb/c model of tuberculosis (lung and spleen CFU); format: in vivo, Mycobacterium tuberculosis (in Balb/c mice)
[9] = male, Sprague-Dawley, rat, in vivo, po, 50 mg/kg
[10] = male, Sprague-Dawley, rat, in vivo, 50 mg/kg, 8 weeks
Experimental: The control group was injected once weekly for 8 weeks with an equal volume of HEPES buffered saline (HBS, pH 7). Before the endpoint of the study animals were humanely euthanized by exsanguination from the abdominal aorta following isoflurane anesthesia. Blood and tissue samples were collected for evaluation of clinical pathology parameters. Representative samples of tissues were collected and preserved in 10% neutral buffered, embedded in paraffin, sectioned, mounted on glass slides, stained with hematoxylin and eosin, and evaluated for histopathology by a board-certified veterinary pathologist.
The following parameters and end points were also evaluated: mortality and moribundity check, clinical observations, body weights, food consumption, nerve conduction velocity (NCV) and muscle action potential (MAP), functional observation battery (FOB).

M. Tuberculosis Erdman [11] = conditions: eight weeks, Balb/c and C3HeB/FeJ mice; cited from earlier work
in vivo = conditions: male, Sprague-Dawley, rat
[12] = Balb/c mice, 50 mg/kg, q1x5, oral gavage
[13] = Balb/c mice, 100 mg/kg, q1x5, oral gavage

## CN(C)CCn1nnc(-c2ccc(-c3ccc(N4C[C@H](CN)OC4=O)cc3F)cn2)n1.Cl [AKG-28]
M.tb Erdman; Erdmann strain
  fold more potent than linezolid in killing M. Tuberculosis in vitro: 33 fold
M.tb Erdman; Mycobacterium tuberculosis, ERDMAN, read-out: Mycobacterium tuberculosis MIC, Erdman
  MIC: 0.03 µg/mL
M.tb H37Rv; Mycobacterium tuberculosis, H37RV, read-out: MIC (H37Rv)
  MIC: 0.015 µg/mL
M.tb H37Rv; Mycobacterium tuberculosis, H37RV, read-out: Mycobacterium tuberculosis MIC, H37Rv
  MIC: 0.015 µg/mL
[1]
  IC50: 83 µg/mL
[2]
  IC50: 13.4 µg/mL
[3]
  Selectivity Index (SI) Erd/HepG2: 446.7
  Selectivity Index (SI) Erd/VERO: 2766.7
[4]
  Concentration % (w/w) of free base (visually clear solution): 7.3 % (w/w)
[5]
  IC50: 0.411 µg/mL
M.avium; M.avium, M. chelonae, M. abscessus and M. kansasii
  potency relative to tedizolid in NTM species and strains: generally more potent than tedizolid
M.avium; M. avium sbsp. avium strain 2285 R, read-out: MIC
  MIC: 0.06 µg/mL
M.avium; M. avium sbsp. avium strain 2285 S
  MIC: 0.125 µg/mL
M.avium; M. avium sbsp. avium strain 3993
  MIC: 0.125 µg/mL
M. chelonae; M. chelonae strain 49
  MIC: 0.06 µg/mL
M. chelonae; M. chelonae strain 69
  MIC: 0.5 µg/mL
M. chelonae; M. chelonae strain 35752
  MIC: 0.125 µg/mL
M. abscessus; M. abscessus sbsp. abscessus strain 21
  MIC: 0.25 µg/mL
M. abscessus; M. abscessus sbsp. abscessus strain 1513
  MIC: 32 µg/mL
M. abscessus; M. abscessus sbsp. abscessus strain 1948
  MIC: 0.125 µg/mL
M. kansasii
  MIC: 0.125 µg/mL
M. kansasii; M. kansasii strain 662, read-out: MIC
  MIC: > 32 µg/mL
M. massiliense
  MIC: 0.25 µg/mL
M. massiliense; CIP108297
  MIC: 1 µg/mL
[6]
  burst release phenomenon in plasma in vitro: observed in human plasma for the formulations containing 40 mol.% cholesterol, but not for the formulations with 45 mol.% or more of cholesterol
MRSA ATCC BAA-1556; read-out: MRSA MIC
  MIC: > 50 µg/mL
MRSA ATCC BAA-1556; read-out: MRSA MIC, ATCC BAA-1556
  MIC: > 50 µg/mL
MRSA ATCC 43300
  MIC: > 50 µg/mL
MRSA 880 NR-49120
  MIC: > 50 µg/mL
[7]; 0.5 M AS
  maximum drug load: 404-424 g/mol PhL
[7]; 0.5 M AS, at drug loads of 302 (AKG-28) and 387-764 (AKG-38) g/mol PhL
  loading efficiency: quantitative loading
[7]; 1 N TEA-SOS
  maximum drug load: 315-328 g/mol PhL
[7]; 1 N TEA-SOS, at drug load 250 (AKG-28) and 400-777 (AKG-38) g/mol PhL
  maximum loading efficiency: 83.5%
[7]; 30 mol% cholesterol, 1 N TEA-SOS, AKG-28: 5 mol% PEG-DSG or PEG-DSPE, AKG-38: 5 mol% PEG-DSPE
  liposome aggregation during drug loading: irreversibly aggregated during the drug loading
[7]; scaled-up lots, HSPC:Chol:PEG-DSPE 45:55:2.25, 0.5 M AS, DL 250 (AKG-28) or 450 (AKG-38) g/mol
  loading efficiency (from unencapsulated drug in pre-concentration diafiltrate): 99.1% and 99.3%

## CC(=O)NC[C@H]1CN(c2ccc(N3CCOCC3)c(F)c2)C(=O)O1 [Linezolid]
M.tb Erdman; Mycobacterium tuberculosis, ERDMAN; read-out: Mycobacterium tuberculosis MIC, Erdman
  MIC: 1 µg/mL (≈ 2.96 µM)
M.tb Erdman; Mycobacterium tuberculosis; M. tuberculosis Erdman / H37Rv, strains not separated; read-out: MIC
  MIC: 2 µg/mL (≈ 5.93 µM)
M.tb H37Rv; Mycobacterium tuberculosis, H37RV; as determined in Example 2; read-out: MIC (H37Rv)
  MIC: 1 µg/mL (≈ 2.96 µM)
M.tb H37Rv; Mycobacterium tuberculosis, H37RV; read-out: Mycobacterium tuberculosis MIC, H37Rv
  MIC: 1 µg/mL (≈ 2.96 µM)
M. Tuberculosis Erdman [8]; [12]
  Lung Log CFU, 4 week: 4.61 ± 0.31 Log CFU
  Spleen Log CFU, 4 week: 4.32 ± 0.28 Log CFU
M. Tuberculosis Erdman [8]; [13]
  Lung Log CFU, 2 week: 5.58 ± 0.10 Log CFU
  Lung Log CFU, 4 week: 4.17 ± 0.21 Log CFU
  Lung Log CFU, 8 week: 2.45 ± 0.37 Log CFU
  Spleen Log CFU, 2 week: 4.53 ± 0.25 Log CFU
  Spleen Log CFU, 4 week: 3.90 ± 0.28 Log CFU
M. Tuberculosis Erdman [8]; eight weeks, linezolid 100 mg/kg, detection limit 1.13
  log10 CFU in lungs: 2.45 log10 CFU
M. Tuberculosis Erdman [8]; two weeks, Ls-AKG28 50 mg/kg twice weekly or 100 mg/kg once weekly, linezolid 100 mg/kg (q1x5)
  Log10 CFU reduction, lungs: less than 0.15 Log10 CFU
[9]
  AUC0-inf: 373.53 µg·h/mL
  Clearance: 133.86 mL/h/kg
  T ½: 11.86 h
  Vd: 2,291.26 mL/kg
[10]
  Kidney: Vacuolation, mesangial cell, glomerular, Minimal (animals): 0
  Kidney: Vacuolation, mesangial cell, glomerular, number of animals with the finding: (0)
  Liver: Degeneration, hepatocellular, centrilobular, Mild (animals): 0
  Liver: Degeneration, hepatocellular, centrilobular, Minimal (animals): 0
  Liver: Degeneration, hepatocellular, centrilobular, number of animals with the finding: (0)
  Liver: Single cell necrosis, centrilobular, Minimal (animals): 2
  Liver: Single cell necrosis, centrilobular, number of animals with the finding: (2)
  Spleen: Accumulation, basophilic material, Mild (animals): 0
  Spleen: Accumulation, basophilic material, Minimal (animals): 0
  Spleen: Accumulation, basophilic material, number of animals with the finding: (0)
  Spleen: Vacuolation, macrophages, Mild (animals): 0
  Spleen: Vacuolation, macrophages, Minimal (animals): 0
  Spleen: Vacuolation, macrophages, Moderate (animals): 0
  Spleen: Vacuolation, macrophages, number of animals with the finding: (0)
M. Tuberculosis Erdman [11]
  log10 CFU counts, monotherapy (Lanoix et al. 2015): 4-6 log10 CFU
In vivo
  Vd: 2.29 L/kg
In vivo; po, 50 mg/kg
  AUC: 282 µg·h/mL
  AUC0-inf: 374 µg·h/mL
  AUC(0-t): 282 µg·h/mL
  Cmax: 26700 ng/mL
  Tmax: 1 h
  half-life: 712 min
[7]; HSPC, 5 mol% PEG-lipid, 40-65 mol% Chol, DL0 250 (AKG-28) or 500 (AKG-38)
  EE: less than 5%
